From a melting point compilation (Tetko et al.; mined from patent text by program, amines drawn as free bases though some values may be those of a salt) come the findings set out here.

Structures are written as SMILES. Where only a bound is given, the exact number is not on record here.

In general, melting point refers to the temperature, or range, at which the solid turns liquid. Molecule `CCOC(=O)c1cn(CCO)c2cc(-n3cccc3)c(F)cc2c1=O` yielded a melting point of 237 to 239 °C.

Molecule `CC(C)(CN)c1ccc2nc(-c3ccncc3)[nH]c2c1` showed a melting point of 199 to 202 °C.

`CC(C)Oc1cc(-c2cn(C)c(C(F)(F)F)cc2=O)c(F)cc1Cl` registered a melting point of 150 to 151 °C.

Consider `CCCCn1nc2c(N)nc3ccccc3c2c1CC(C)(C)C`, for which the melting point was in the range of 163 to 164 °C.

As for `COC(=O)c1cc(-c2cccc(C(F)(F)F)c2)ns1`, the melting point is 82 to 83 °C.

The molecule `CCOC(=O)c1cn2c3c(cc(CN4CCOCC4)cc3c1=O)OCC2` gave a melting point of 216 to 218 °C.

`Cc1ccc(C(=O)C#CCO)cc1` gave a melting point of 74 °C.

`CC(CSS)C(=O)Nc1ncccc1C(=O)O` (configuration not stated) yielded a melting point of 95 to 100 °C.

Molecule `COC(=O)c1cccc(CN2C(=O)C(CCO)Oc3ccccc32)c1` (configuration not stated) had a melting point of 73 to 75 °C.

Molecule `Cn1nc(S(C)(=O)=O)c(=O)c2ccccc21` showed a melting point of 202 to 204 °C.

`Cn1c2ccc(Cl)cc2c2c3ccccc3c(OCCN3CCOCC3)nc21` displayed a melting point of 140 to 142 °C.

`CN1CCCC1=Nc1ncnc2c1ncn2C1=CC(=O)CC1` had a melting point of 200 to 205 °C.

With `CC(=O)Nc1cc(C(C)=O)ccc1OCCCN1CCC(c2noc3cc(F)ccc23)CC1`, the melting point was 108 to 110 °C.

Consider `O=C(O)C(CCc1ccccc1)NS(=O)(=O)c1ccc2sc3ccccc3c2c1` (configuration not stated), for which the melting point is 148 to 151 °C.

In the case of `Cc1c(C2=NC(C)(C)CO2)cccc1[N+](=O)[O-]`, the melting point lay within 60 to 61 °C.

Molecule `O=[N+]([O-])c1ccc2c(c1)OC(C1(CCCCCl)OCCO1)CO2` (configuration not stated) returned a melting point of 74 to 76 °C.

In the case of `CC(C)(C)OC(=O)NC(Cc1ccccc1)C(O)CNCC(O)C(Cc1cccc(OCc2ccccc2)c1)NC(=O)OC(C)(C)C` (configuration not stated), the melting point lay within 125 to 145 °C.

The molecule `Nc1cccc2nc3c(nc12)N1CCCCC1CO3` (configuration not stated) displayed a melting point of 207 to 209 °C.

Take `COc1cc(CC2(Cc3ccnc(OC)c3)c3ccccc3-c3ncccc32)ccn1`: the melting point was 138 to 140 °C.

`Cc1cc(NC(=O)C(C)(O)COc2cccc(Cl)c2)ccc1[N+](=O)[O-]` (configuration not stated) showed a melting point of 104 to 107 °C.

With `CC1CCCC1(O)c1ccc(C#N)c2ccccc12` (configuration not stated), the melting point is 121 to 122 °C.

For the molecule `Cc1cncc(/C=C/c2cccc(F)c2)n1`, the melting point was in the range of 43 to 44 °C.

Molecule `CCN1CCCC1CNC(=O)c1c(OC)c(Cl)cc(Cl)c1OC` (configuration not stated) came in with a melting point of 120 to 121 °C.

`C=CCOc1ccccc1-c1nc2nc(SC)ncc2c(=O)[nH]1`: the melting point fell in the range of 205 to 206 °C.

In turn, `CN(CCc1ccccc1)C(=O)C(O)C(O)c1ccccc1` (configuration not stated) displayed a melting point of 145 to 147 °C.

`COc1ccc(-c2nnc3c4ccccc4c(Nc4cccc(-c5nn[nH]n5)c4)nn23)cc1` came in with a melting point of 305 to 308 °C.

The molecule `CC(C)CCNC(=O)c1ccc(-c2nn(Cc3cccc(Cl)c3)c(=S)[nH]2)cc1` came in with a melting point of 218 to 220 °C.

Molecule `CCOC(=O)COC1CCN(C(=O)[C@H](C)CC(=O)c2ccc(C#N)cc2)CC1` registered a melting point of 97 to 98 °C.

The molecule `CC(C)(C)OCC1CN(c2ccc3cc(OCc4ccccc4)ccc3c2)C(=O)O1` (configuration not stated) displayed a melting point of 152 °C.

Molecule `CC(C(N)=O)c1ccc2c(c1)Sc1ccccc1CC2=O` (configuration not stated) registered a melting point of 178 to 179 °C.

As for `CNC(=O)c1cc(SC)cc(N)n1`, the melting point fell in the range of 89 to 91 °C.

Molecule `CCOC(=O)c1sc2[nH]c(=O)c(=O)[nH]c2c1C` showed a melting point above 300 °C.

With `OC(CN1CCNC1=S)c1ccncc1` (configuration not stated), the melting point is 204 °C.

Molecule `COc1ccc(-c2nc(-c3cccn3CC(=O)OC(C)C)sc2-c2ccc(OC)cc2)cc1` registered a melting point of 130 to 133 °C.

Turning to `CN(CCCNC(=O)CSc1nc2ccc(N(C)C)nc2s1)Cc1ccc(Cl)c(Cl)c1`, the melting point was 92 to 93 °C.

As for `CC1CCOP(C)(=O)C1` (configuration not stated), the melting point was in the range of 78 to 83 °C.

Turning to `Cc1cc(-c2ccc(S(N)(=O)=O)cc2)n(-c2ccc(SSc3ccc(-n4cc(C)cc4-c4ccc(S(N)(=O)=O)cc4)cc3)cc2)c1`, the melting point was in the range of 251 to 255 °C.

Consider `CC(C)C(NC(=O)OC(C)(C)C)C(=O)OC(O)C(=O)C1C(C)CC2C3CC(F)C4=CC(=O)C=CC4(C)C3C(O)CC21C` (configuration not stated), for which the melting point is 166 to 168 °C.

Turning to `CCOC1C(NC(C)=O)CC(OC)OC1C` (configuration not stated), the melting point is 199 to 200 °C.

Turning to `Cn1cc(-c2ccccc2)c(=O)c(-c2cc(C(F)(F)F)ccc2Cl)c1`, the melting point fell in the range of 150 to 152 °C.

Molecule `Nc1ccc2c(c1)N(C1CCN(CCc3ccc(F)cc3)CC1)CC2` came in with a melting point of 104 to 106 °C.

For the molecule `Cc1ccc(S(=O)(=O)C(CCl)Sc2cccc([N+](=O)[O-])c2)cc1` (configuration not stated), the melting point lay in the range of 92 to 101 °C.

Regarding `NC(=S)/C=C/c1cc([N+](=O)[O-])ccc1Cl`, the melting point is 236 to 238 °C.

As to `COc1nc2ccc(Br)cc2c2c1C(C)(O)c1ccccc1-2` (configuration not stated), the melting point lay within 159 to 160 °C.

`Cc1cc(C)c2c(c1C)OC(C)(CC(=O)O)C2` (configuration not stated): the melting point fell in the range of 139 to 140 °C.

`Cc1ccc(C)c(NC(=O)CN2CCN(c3ncccc3C#N)CC2)c1`: the melting point lay in the range of 106 to 108 °C.

`Cc1sc(Nc2cc(F)ccn2)nc1-c1cn[nH]c1` returned a melting point of 283 °C.

With `CC(C)(C)OC(=O)N1CC[C@H](O)[C@H]1C(=O)O`, the melting point is 156 to 157 °C.

`CC(=O)Nc1ncnc2[nH]nc(C#N)c12`: the melting point was above 360 °C.

Consider `CCN(Cc1ccccc1Oc1ccccc1)c1ccc(C(=O)O)nn1`, for which the melting point was 70 to 75 °C.

In turn, `COC(=O)c1ccc2c(c1)OCCC2NC(=O)OCc1ccccc1` (configuration not stated) registered a melting point of 140 to 142 °C.

As to `COc1ccc(C(O)C(CO)[N+](=O)[O-])cc1OC` (configuration not stated), the melting point fell in the range of 134 to 138 °C.

With `O=C(CCCCCCCCc1ccccc1)NO`, the melting point is 75 to 77 °C.

In turn, `Cc1cc(C)nc(NCC#N)c1` displayed a melting point of 92 to 93 °C.

In the case of `COc1ccc(Cn2cc([N+](=O)[O-])c(C(N)=O)n2)cc1`, the melting point lay within 192 to 193 °C.

`COC(=O)c1cc(C(=O)c2ncc3ccccn23)ccc1NC(=O)c1ccccc1` came in with a melting point of 218 °C.

On to `CCOC1CCC2C3CCc4cc(OC)ccc4C3CCC12CC` (configuration not stated), for which the melting point was in the range of 74 to 77 °C.

The molecule `CC(C)(C)OC(=O)N[C@@]1(C(=O)OC(C)(C)C)CC(=O)[C@H]2[C@H](C(=O)OC(C)(C)C)[C@H]21` came in with a melting point of 144 to 146 °C.

For the molecule `O=C(O)CCCCCCCn1c(-c2ccccc2)nc(-c2ccccc2Cl)c1-c1ccccc1Cl`, the melting point was determined as 198 °C.

`CC(C)CCOc1c(-c2ccc(S(C)(=O)=O)cc2)cnn(CC(F)(F)F)c1=O` registered a melting point of 111 to 113 °C.

Regarding `Cc1cn2c(=O)c(C(=O)O)cnc2c2cc(N)ccc12`, the melting point is above 300 °C.

`CC(O)c1ccnc(C(=O)c2[nH]c3cc(Cl)ccc3c2CC(=O)O)c1` (configuration not stated) gave a melting point of 193 to 194 °C.

The molecule `NC(=O)NN=C1CCCCC1n1nc(-c2c(-c3ccccc3)nn3ccccc23)ccc1=O` (configuration not stated) returned a melting point of 227 to 229 °C.

With `CCOC(=O)c1ccc(NC(=O)Nc2c(OC)ccc3c2C(C)(C)COC3(C)C)cc1`, the melting point is 147 to 149 °C.

For `CCCC(=O)OCOC(=O)C1=C(C)NC(C)=C(C(=O)OC)C1c1cccc(Cl)c1Cl` (configuration not stated), the melting point was in the range of 128 to 129 °C.

The molecule `O=[N+]([O-])c1cc(O)c(Cl)cc1F` gave a melting point of 106 to 107 °C.

`Cc1ccccc1C(=O)Nc1ccc(C(=O)N2CCCC(N(C)S(C)(=O)=O)c3ccccc32)cc1` (configuration not stated) had a melting point of 197 to 198 °C.

With `CC(C)(C)CNS(=O)(=O)c1cccc(NC(=O)c2cnn3c(C(F)(F)F)cc(-c4ccc(C(F)(F)F)cc4)nc23)c1`, the melting point came to 231 °C.

Regarding `O=C(CCCC1CCN(Cc2ccccc2)CC1)c1ccc(F)cc1`, the melting point is 53 to 55 °C.

`CC(C)=C(C)CCC(C)C1CCC2(C)C3CCC4C(C)(C)C(O)CCC45CC35CCC12C` (configuration not stated) came in with a melting point of 165 to 166 °C.

As to `O=C1C=CC(=O)N1c1ccc2c3c(cccc13)-c1ccccc1-2`, the melting point is 185 to 186 °C.

Turning to `COc1ccc(C(O)CNC(C)CCc2ccccc2)cc1C(N)=O` (configuration not stated), the melting point lay within 110 to 148 °C.

Take `CC(C)(C)c1ccc(CSc2ccc3c(c2)OCC(=O)N3)cc1`: the melting point fell in the range of 134 to 136 °C.

The molecule `C/C(=C(\C#N)C(N)=S)N1CCCN(c2ccccn2)CC1` registered a melting point of 155 to 157 °C.

Molecule `COCNC(=O)C1CN(C(c2ccccc2)c2ccccc2)C1` returned a melting point of 103 to 106 °C.

On to `OCCOc1ccc(-c2nc(-c3ccc(OCCO)cc3O)nc(-c3ccc(OCCO)cc3O)n2)c(O)c1`, for which the melting point was determined as 195 °C.

In turn, `N#CC(=CN1CCOCC1)Cc1ccc2c(c1)OCO2` showed a melting point of 85 to 85.5 °C.

The molecule `COc1cc2c(cc1Nc1ncc(Cl)c(Nc3ccc(N4CCOCC4)cc3OC)n1)CCN(C(=O)CN(C)C)CC2` returned a melting point of 84 to 101 °C.

With `CCN(CC)CCOc1ccc2c(c1)cc(OC)c1cc(OCCN(CC)CC)ccc12`, the melting point was in the range of 63 to 65 °C.

In turn, `COc1cc2c(cc1C=O)OCC2` came in with a melting point of 82 to 84 °C.

`COc1cc(Cl)ccc1N=c1scc(-c2ccc(Cl)c(S(=O)(=O)N(C)C)c2)n1C` gave a melting point of 148 to 150 °C.

`CCNc1nc(SC)ncc1C(=O)O` came in with a melting point of 188 °C.

With `CC(=O)Nc1ccc(O)c(CN2CCC(NC(=O)c3ccccc3)CC2)c1`, the melting point was found to be 242 °C.

In turn, `Cc1cc2c(c3ccc(=O)[nH]c13)OCC2C=O` (configuration not stated) registered a melting point of 230 to 232 °C.

`CCCCCC(=O)COS(=O)(=O)c1ccc(OCC)cc1` returned a melting point of 35 to 35.5 °C.

Molecule `N#CN=C(Nc1cccnc1)NC1CC1` yielded a melting point of 171 to 172 °C.

Molecule `O=C(O)Cc1ccc(CC2CCCCC2=O)cc1` (configuration not stated) returned a melting point of 71.5 to 72.5 °C.

Molecule `O=C(O)c1cc2cccnc2[nH]1` had a melting point above 260 °C.

Consider `N#Cc1c[nH]c(C(N)=O)c1`, for which the melting point is 253 to 256 °C.

In the case of `C#CCOc1ccc2nc(N)c3nc4n(c3c2c1)C(C)COC4` (configuration not stated), the melting point is 184 to 186 °C.

For the molecule `Nc1ncc(-c2ccccc2F)nc1C(=O)Nc1cccnc1`, the melting point lay in the range of 221 to 225 °C.

Molecule `CS(=O)(=O)NCCCCn1c(CCO)nc2c(N)nc3ccccc3c21` gave a melting point of 206 to 208 °C.
